# Reference: ChEMBL document CHEMBL1201862, “PubChem BioAssay data set” (2004)
# The source made the active and inactive calls.
# Legend:
# [1] = molecular target: T1, Mannose-6-phosphate isomerase (Homo sapiens, UniProt P34949); assay: phosphomannose isomerase inhibition – biochemical, fluorescence intensity, confirmation (AID 1535)
# T1 sequence (P34949 whole entry): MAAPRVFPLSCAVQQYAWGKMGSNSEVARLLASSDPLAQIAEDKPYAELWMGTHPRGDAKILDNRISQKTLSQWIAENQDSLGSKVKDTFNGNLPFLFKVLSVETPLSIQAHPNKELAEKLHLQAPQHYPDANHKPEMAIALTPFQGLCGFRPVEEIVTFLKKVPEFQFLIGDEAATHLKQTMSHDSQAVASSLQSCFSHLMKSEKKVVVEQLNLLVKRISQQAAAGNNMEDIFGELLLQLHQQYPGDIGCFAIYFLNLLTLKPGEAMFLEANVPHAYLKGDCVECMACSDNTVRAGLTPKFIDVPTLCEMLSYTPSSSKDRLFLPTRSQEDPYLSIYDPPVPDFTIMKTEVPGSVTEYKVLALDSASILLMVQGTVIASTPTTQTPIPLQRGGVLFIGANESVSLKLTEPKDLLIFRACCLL
# [2] = molecular target: T2, Phosphomannomutase 2 (Homo sapiens, UniProt O15305); assay: Counter screen SAR assay for PMM2 inhibitors via a fluorescence intensity assay. [Related pubchem assays (depositor defined):AID1545, AID1574]
# T2 sequence (O15305 whole entry): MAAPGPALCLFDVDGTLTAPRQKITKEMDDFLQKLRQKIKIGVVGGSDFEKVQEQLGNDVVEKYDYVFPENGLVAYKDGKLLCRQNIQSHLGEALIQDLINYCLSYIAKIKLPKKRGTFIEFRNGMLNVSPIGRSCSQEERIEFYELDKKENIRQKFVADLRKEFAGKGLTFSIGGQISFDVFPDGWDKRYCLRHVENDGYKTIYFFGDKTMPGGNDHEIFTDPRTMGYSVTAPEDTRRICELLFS
# [3] = molecular target: T3, Ubiquitin-conjugating enzyme E2 N (Homo sapiens, UniProt P61088); assay type: functional
# T3 sequence (P61088 whole entry): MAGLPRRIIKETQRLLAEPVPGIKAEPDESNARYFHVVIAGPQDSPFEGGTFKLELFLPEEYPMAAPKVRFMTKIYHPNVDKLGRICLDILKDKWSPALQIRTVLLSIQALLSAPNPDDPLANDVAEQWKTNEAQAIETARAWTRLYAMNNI
# [4] = molecular target: T4, Bcl-2-related protein A1 (Mus musculus, UniProt Q07440); assay type: functional;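 note: confirmatory dose–response counterscreen on Bfl-1, used to check hits from a UBC13 polyubiquitin inhibitor campaign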
# T4 sequence (Q07440 whole entry): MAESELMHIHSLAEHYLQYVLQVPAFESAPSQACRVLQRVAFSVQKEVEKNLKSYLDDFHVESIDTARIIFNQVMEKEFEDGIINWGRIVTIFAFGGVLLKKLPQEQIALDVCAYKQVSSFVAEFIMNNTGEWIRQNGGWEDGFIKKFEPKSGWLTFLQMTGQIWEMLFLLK
# [5] = molecular target: T3, Ubiquitin-conjugating enzyme E2 N; assay type: functional; remark: listed apart in the source
# [6] = molecular target: G-protein coupled receptor 55 (Homo sapiens, UniProt Q9Y2T6); assay: blockers of GPR55 signalling, imaged – imaging, image-based, counter-screen for GPR35 antagonist project, SAR follow-up (AID 2397); assay type: functional
# [7] = molecular target: T5, Protein RecA (Mycobacterium tuberculosis, UniProt P9WHJ3); assay: Fluorescence Cell-Free Homogeneous Dose Retest to Identify Inhibitors of RecA-Intein Splicing Activity. [Related pubchem assays (depositor defined):AID2097, AID2223, AID489010, AID492950]; assay type: functional
# T5 sequence (P9WHJ3 whole entry): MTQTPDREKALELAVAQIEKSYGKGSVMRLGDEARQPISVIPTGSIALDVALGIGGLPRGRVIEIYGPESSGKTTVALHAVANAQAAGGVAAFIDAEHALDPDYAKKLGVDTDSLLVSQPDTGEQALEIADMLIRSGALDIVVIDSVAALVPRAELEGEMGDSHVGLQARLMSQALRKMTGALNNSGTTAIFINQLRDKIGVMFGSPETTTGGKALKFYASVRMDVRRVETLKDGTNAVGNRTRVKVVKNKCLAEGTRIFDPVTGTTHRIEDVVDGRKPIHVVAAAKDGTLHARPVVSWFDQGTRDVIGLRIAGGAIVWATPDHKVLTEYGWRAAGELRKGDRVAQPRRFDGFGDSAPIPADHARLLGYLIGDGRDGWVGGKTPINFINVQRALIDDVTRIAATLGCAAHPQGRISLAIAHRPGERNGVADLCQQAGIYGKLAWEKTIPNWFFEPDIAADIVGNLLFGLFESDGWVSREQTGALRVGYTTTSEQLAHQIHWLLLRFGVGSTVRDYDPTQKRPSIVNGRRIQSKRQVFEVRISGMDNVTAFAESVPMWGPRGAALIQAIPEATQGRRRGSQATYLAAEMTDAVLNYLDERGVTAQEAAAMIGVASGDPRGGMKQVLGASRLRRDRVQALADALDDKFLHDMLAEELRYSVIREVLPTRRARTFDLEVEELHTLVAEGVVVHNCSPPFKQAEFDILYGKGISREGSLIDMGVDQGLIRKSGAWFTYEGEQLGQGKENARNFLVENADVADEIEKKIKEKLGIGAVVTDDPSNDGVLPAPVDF
# [8] = molecular target: T6, Replicative DNA helicase DnaB (Mycobacterium tuberculosis, UniProt P9WMR3); assay: DnaB intein splicing inhibitors, dose response, biochemical, cell-free fluorescence (AID 449749); assay type: functional
# T6 sequence (P9WMR3 whole entry): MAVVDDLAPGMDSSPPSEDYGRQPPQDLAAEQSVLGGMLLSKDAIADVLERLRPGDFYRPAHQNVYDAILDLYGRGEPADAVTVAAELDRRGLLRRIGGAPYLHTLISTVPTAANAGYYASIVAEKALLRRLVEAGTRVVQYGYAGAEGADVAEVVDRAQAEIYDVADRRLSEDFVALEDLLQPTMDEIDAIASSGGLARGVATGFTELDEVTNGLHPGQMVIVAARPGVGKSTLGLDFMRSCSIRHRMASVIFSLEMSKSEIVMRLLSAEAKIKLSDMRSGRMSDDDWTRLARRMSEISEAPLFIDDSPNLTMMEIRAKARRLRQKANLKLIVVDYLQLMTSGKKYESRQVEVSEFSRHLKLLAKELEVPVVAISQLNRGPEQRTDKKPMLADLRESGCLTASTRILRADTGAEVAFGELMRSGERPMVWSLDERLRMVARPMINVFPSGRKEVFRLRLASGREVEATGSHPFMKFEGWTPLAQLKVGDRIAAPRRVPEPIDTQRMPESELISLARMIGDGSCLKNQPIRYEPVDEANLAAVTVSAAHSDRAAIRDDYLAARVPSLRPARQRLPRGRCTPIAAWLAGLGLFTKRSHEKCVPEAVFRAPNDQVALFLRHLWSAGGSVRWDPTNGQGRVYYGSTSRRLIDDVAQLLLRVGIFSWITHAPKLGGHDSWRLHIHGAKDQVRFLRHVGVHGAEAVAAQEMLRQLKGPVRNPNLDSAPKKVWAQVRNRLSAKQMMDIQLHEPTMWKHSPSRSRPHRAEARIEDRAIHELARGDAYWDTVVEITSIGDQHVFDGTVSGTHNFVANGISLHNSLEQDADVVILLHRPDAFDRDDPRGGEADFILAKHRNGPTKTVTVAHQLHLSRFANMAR
# [9] = viability of uninfected HEp-2 cells – cell-based, HTS, cytotoxicity control for RSV inhibitor project, dose response (AID 2410); assay type: functional; details: human respiratory syncytial virus
# [10] = molecular target: E3 ubiquitin-protein ligase XIAP (Homo sapiens, UniProt P98170); assay: Counter Screen using XIAP-Bir3 for Chemical Antagonists of Bir1/2 domains of IAP-family anti-apoptotic proteins. [Related pubchem assays (depositor defined):AID1018, AID1449, AID1514, AID1638, AID1749, AID1750, AID488957, AID488963]
# [11] = molecular target: T7, Cytochrome P450 1A2 (Homo sapiens, UniProt P05177);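 note: PubChem cytochrome P450 panel assay, CYP1A2 panel member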
# T7 sequence (P05177 whole entry): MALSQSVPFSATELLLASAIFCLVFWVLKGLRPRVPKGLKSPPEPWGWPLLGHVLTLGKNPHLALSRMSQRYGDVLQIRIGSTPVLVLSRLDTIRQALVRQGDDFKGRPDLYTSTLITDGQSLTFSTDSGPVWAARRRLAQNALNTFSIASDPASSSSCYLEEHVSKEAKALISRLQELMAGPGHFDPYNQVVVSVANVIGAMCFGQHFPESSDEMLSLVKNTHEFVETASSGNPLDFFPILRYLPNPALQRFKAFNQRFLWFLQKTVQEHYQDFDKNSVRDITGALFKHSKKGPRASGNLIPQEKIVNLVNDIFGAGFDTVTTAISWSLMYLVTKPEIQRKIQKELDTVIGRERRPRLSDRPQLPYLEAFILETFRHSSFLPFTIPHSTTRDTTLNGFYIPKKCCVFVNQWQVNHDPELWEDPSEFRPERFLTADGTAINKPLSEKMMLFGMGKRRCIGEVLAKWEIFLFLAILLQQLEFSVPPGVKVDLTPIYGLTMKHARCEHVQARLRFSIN
# [12] = molecular target: Cytochrome P450 2D6 (Homo sapiens, UniProt P10635);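 note: CYP2D6 member of a cytochrome P450 panel assay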
# [13] = molecular target: Cytochrome P450 2C9 (Homo sapiens, UniProt P11712)
# [14] = molecular target: T8, Voltage-gated N-type calcium channel alpha-1B subunit/Amyloid beta A4 precursor protein-binding family A member 1 (Homo sapiens, UniProt Q00975+Q02410); assay type: protein assay
# [15] = molecular target: T8, Voltage-gated N-type calcium channel alpha-1B subunit/Amyloid beta A4 precursor protein-binding family A member 1; assay type: protein assay; remark: listed apart in the source
# [16] = molecular target: T9, Leucine aminopeptidase (Plasmodium falciparum 3D7, UniProt Q8IL11); assay: P. falciparum M17LAP inhibitors, primary screen, biochemical, fluorogenic H-Leu-NHMec substrate, 1536-well (AID 1619); assay type: functional
# T9 sequence (Q8IL11 whole entry): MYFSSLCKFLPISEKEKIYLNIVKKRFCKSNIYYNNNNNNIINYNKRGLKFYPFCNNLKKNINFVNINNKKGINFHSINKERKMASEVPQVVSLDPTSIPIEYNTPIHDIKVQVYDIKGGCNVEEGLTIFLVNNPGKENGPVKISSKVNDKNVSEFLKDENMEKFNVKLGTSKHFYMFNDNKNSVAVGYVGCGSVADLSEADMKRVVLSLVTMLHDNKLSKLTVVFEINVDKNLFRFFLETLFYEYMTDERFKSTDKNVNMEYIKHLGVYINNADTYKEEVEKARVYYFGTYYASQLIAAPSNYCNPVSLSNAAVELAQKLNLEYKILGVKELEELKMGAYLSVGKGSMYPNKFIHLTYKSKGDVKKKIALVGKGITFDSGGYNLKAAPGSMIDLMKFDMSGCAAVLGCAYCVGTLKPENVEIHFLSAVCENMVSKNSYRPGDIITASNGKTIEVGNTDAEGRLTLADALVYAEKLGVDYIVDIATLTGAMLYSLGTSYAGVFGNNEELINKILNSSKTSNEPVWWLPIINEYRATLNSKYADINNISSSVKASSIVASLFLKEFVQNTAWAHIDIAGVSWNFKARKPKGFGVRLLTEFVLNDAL
# [17] = molecular target: DNA dC->dU-editing enzyme APOBEC-3A (Homo sapiens, UniProt P31941); assay: A3A deaminase inhibition for selectivity – biochemical, dose response (AID 504722); assay type: functional
# [18] = molecular target: DNA dC->dU-editing enzyme APOBEC-3G (Homo sapiens, UniProt Q9HC16); assay: Dose Response confirmation of small molecule APOBEC3G DNA Deaminase Inhibitors via a fluorescence-based single-stranded DNA deaminase assay. [Related pubchem assays (depositor defined):AID493012, AID493028]; assay type: functional
# [19] = molecular target: Cytochrome P450 2C19 (Homo sapiens, UniProt P33261); assay: Cytochrome panel assay with activity outcomes. Panel member name: p450-cyp2c19 Compounds with AC50 equal or less than 10 uM are considered active; assay type: functional; details: read-out: AC50
# T8 sequence (Q00975 whole entry): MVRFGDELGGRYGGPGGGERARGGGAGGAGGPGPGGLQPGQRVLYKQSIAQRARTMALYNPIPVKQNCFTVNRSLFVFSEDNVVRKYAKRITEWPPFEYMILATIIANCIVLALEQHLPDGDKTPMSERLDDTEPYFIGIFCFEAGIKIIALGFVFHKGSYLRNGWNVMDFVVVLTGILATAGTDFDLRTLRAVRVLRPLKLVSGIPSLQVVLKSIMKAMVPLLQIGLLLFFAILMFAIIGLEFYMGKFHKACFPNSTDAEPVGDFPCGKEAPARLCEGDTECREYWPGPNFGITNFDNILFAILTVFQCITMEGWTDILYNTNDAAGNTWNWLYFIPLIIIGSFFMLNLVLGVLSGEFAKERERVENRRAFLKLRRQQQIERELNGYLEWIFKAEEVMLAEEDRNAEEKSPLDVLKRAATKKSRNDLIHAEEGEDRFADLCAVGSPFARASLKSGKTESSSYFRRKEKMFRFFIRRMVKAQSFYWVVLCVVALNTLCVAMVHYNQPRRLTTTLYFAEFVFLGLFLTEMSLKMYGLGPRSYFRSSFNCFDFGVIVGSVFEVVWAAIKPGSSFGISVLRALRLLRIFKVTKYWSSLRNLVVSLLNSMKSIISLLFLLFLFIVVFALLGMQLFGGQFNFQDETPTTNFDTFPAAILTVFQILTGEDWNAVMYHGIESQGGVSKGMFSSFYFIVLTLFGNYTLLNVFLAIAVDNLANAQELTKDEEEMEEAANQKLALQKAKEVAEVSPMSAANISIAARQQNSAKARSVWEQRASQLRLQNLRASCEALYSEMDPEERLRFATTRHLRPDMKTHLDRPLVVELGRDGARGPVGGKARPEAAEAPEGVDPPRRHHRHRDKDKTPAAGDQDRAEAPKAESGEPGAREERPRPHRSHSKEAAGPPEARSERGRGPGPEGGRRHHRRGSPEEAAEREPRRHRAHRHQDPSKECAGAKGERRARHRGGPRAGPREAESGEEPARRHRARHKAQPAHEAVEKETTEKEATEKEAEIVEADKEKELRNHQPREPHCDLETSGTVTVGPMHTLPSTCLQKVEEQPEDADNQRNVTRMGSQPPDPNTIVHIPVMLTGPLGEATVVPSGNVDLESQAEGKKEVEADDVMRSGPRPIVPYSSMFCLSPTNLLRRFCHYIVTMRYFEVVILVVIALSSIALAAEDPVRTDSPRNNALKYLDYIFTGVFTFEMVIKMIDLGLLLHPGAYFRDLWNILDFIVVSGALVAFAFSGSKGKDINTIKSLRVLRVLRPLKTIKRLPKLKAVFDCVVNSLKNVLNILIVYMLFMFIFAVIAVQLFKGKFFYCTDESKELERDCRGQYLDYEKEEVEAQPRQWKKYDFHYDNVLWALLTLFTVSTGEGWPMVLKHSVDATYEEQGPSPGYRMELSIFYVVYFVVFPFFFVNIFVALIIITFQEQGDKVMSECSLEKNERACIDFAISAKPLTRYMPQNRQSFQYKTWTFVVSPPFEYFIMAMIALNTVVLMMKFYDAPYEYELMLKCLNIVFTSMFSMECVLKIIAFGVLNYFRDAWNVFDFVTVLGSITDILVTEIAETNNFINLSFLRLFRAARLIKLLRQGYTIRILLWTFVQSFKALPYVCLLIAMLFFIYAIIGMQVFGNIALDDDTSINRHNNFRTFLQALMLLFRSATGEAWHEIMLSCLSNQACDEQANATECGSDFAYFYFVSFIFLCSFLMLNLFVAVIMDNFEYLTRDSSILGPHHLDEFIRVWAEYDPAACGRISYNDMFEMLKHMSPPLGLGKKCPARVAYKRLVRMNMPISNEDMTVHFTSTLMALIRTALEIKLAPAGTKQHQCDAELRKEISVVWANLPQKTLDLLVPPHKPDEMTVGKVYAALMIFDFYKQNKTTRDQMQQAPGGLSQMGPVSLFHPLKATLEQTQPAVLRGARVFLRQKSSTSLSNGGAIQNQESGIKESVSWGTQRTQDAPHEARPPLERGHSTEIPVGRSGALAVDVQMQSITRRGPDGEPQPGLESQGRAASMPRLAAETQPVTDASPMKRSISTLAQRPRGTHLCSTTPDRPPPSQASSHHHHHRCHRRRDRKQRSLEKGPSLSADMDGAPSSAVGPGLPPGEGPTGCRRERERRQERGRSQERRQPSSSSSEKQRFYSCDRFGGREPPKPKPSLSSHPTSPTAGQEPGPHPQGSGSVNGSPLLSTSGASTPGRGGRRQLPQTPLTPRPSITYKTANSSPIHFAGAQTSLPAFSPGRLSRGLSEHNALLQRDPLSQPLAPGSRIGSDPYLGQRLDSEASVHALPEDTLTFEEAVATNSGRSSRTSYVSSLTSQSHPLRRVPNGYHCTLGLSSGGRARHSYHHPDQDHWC
# T8 sequence (Q02410 whole entry): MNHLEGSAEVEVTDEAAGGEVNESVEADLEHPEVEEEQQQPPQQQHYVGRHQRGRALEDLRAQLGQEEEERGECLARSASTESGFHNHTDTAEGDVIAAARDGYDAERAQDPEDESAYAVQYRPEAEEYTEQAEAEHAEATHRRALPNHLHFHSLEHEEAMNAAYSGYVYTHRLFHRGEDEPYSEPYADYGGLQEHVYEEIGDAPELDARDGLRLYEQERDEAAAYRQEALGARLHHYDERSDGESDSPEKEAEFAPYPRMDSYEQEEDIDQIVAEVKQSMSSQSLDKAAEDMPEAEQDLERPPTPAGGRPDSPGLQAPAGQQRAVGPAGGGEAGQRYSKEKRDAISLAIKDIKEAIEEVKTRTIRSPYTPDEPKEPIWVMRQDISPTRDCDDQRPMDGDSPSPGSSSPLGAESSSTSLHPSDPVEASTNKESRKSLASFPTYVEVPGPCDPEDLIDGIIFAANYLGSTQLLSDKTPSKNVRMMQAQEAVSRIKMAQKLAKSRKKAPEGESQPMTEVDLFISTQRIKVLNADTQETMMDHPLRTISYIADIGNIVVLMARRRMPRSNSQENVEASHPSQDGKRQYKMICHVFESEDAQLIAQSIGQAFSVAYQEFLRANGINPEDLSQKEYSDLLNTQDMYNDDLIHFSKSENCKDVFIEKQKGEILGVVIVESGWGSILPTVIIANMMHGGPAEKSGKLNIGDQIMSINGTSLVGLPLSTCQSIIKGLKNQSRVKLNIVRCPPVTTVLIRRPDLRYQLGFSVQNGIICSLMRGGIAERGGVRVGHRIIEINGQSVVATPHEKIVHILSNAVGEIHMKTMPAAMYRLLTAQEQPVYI
# Sequence of Cytochrome P450 2C9 (P11712 whole entry): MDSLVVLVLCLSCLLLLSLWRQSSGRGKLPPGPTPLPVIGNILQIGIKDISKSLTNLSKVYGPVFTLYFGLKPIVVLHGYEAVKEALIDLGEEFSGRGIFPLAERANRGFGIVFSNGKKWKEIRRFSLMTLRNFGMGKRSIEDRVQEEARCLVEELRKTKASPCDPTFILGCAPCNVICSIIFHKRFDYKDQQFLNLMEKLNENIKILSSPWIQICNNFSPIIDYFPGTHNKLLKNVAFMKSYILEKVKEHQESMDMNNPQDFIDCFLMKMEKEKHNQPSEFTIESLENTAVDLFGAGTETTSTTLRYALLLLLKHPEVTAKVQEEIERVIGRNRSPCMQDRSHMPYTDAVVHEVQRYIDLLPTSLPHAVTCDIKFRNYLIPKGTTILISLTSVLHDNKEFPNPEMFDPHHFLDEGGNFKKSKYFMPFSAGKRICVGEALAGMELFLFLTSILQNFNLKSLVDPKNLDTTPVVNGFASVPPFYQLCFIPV
# Sequence of G-protein coupled receptor 55 (Q9Y2T6 whole entry): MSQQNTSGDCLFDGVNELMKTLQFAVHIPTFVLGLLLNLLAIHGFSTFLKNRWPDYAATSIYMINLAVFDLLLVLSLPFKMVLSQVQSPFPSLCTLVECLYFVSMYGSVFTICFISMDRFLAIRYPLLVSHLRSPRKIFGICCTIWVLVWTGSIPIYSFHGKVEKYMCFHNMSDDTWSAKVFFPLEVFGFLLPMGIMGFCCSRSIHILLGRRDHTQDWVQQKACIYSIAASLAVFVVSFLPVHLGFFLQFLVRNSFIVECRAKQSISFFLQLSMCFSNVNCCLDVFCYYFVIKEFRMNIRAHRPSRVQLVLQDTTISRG
# Sequence of DNA dC->dU-editing enzyme APOBEC-3G (Q9HC16 whole entry): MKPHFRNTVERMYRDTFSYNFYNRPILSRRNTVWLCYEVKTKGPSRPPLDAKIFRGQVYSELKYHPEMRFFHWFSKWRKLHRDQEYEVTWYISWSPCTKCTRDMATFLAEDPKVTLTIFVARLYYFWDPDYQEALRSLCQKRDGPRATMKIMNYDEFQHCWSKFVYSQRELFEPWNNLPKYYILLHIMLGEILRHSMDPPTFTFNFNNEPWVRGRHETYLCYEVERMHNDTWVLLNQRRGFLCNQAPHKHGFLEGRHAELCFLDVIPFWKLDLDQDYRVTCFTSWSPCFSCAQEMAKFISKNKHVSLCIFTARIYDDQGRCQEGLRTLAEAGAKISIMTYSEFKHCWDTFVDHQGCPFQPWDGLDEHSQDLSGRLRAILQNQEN
# Sequence of DNA dC->dU-editing enzyme APOBEC-3A (P31941 whole entry): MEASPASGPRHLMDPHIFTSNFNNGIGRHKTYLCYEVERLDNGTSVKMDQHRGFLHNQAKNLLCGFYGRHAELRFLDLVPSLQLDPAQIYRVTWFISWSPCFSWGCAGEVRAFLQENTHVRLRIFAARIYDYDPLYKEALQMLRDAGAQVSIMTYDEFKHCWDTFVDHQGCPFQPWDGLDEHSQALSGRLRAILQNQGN
# Sequence of Cytochrome P450 2D6 (P10635 whole entry): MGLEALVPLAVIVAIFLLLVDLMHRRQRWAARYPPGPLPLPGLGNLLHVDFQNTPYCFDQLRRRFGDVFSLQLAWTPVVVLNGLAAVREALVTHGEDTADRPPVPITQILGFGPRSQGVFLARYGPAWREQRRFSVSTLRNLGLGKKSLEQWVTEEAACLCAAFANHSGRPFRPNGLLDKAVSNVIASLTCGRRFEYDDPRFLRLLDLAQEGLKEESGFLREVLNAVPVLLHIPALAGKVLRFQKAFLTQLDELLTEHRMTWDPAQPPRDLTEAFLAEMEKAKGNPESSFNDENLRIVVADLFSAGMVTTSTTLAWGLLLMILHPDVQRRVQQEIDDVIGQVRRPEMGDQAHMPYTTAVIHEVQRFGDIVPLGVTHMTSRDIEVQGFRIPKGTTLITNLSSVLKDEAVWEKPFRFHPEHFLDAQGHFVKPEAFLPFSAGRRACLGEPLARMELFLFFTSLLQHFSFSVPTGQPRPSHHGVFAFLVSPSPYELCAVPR
smiles,measurement,setting,value
Cc1ccc(NP(=O)(c2ccccc2)c2nc3ccccc3s2)cc1 (stereo not drawn),IC50,[1],> 50 µM (inactive)
same,IC50,[2],> 100 µM (inactive)
CCN1C(=O)c2cccc3c(NC(=O)c4ccc(S(=O)(=O)N5CCOCC5)cc4)ccc1c23,IC50,[3],9.74 µM (active)
same,IC50,[4],> 20 µM (inactive)
same,IC50,[5],10.4 µM (active)
O=C(CCCN1C(=O)/C(=C\c2cccs2)SC1=S)Nc1ccc(O)cc1,IC50,[6],29.5 µM (inactive)
same,EC50,[7],5.95 µM (active)
same,AC50,[8],2.19 µM (active)
same,CC50,[9],12.5 µM (active)
CCC(=O)NC(=S)NNC(=O)c1ccc(O)cc1,IC50,[3],8.9 µM (active)
same,IC50,[4],> 20 µM (inactive)
same,IC50,[5],12.2 µM (active)
O=c1[nH]n(-c2ccc([N+](=O)[O-])cc2)c(=O)c2ccccc12,IC50,[10],> 20 µM (inactive)
CC(C)NC(=O)C1CC(=O)N(c2ccc(F)c(Cl)c2)C1 (stereo not drawn),AC50,[11],2 µM (inconclusive)
same,AC50,[12],14.1 µM (inconclusive)
same,AC50,[13],inconclusive
CN(CCOC(=O)/C=C/c1ccco1)Cc1ccccc1,IC50,[14],29.1 µM (active)
same,IC50,[15],18.5 µM (active)
CCOc1ccc(N2C(=O)CC(Sc3n[nH]c(-c4ccccc4)n3)C2=O)cc1 (stereo not drawn),IC50,[16],11.1 µM (active)
same,IC50,[17],> 100 µM (inactive)
same,IC50,[18],14 µM (active)
COc1ccc(NC(=O)c2ccc(C)cc2Cl)c([N+](=O)[O-])c1,AC50,[19],3.55 µM (inconclusive)
same,AC50,[13],inconclusive
